Results on 22 compounds are retold here after PubChem BioAssay AID248 (DTP/NCI, 2004).

Where “and” joins values, the source holds several entries; their conditions need not be identical. Equal values may be shown once. Toxic doses and inconclusive results are not listed.

This assay concerns L1210 leukemia ip in BDF1 mice, survival T/C. The assay is described as follows: NCI In Vivo Anticancer Drug Screen. Data for tumor model L1210 Leukemia (intraperitoneal) in B6D2F1 (BDF1) mice. The note with it: endpoint: mean survival time, higher = longer survival. The method, boiled down: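 Transplantable tumor model; survival measured in treated vs vehicle control mice. Value = treated/control.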

The mark [1] stands for this setting: dose: 100.0 mg/kg/injection, schedule: Q01DX001 (ip), vehicle: Klucel (hydroxypropylcellulose) (HPC).
Where [2] appears, read: dose: 100.0 mg/kg/injection, schedule: Q04DX003 (ip), vehicle: Klucel (hydroxypropylcellulose) (HPC).
[3] abbreviates: dose: 200.0 mg/kg/injection, schedule: Q01DX001 (ip), vehicle: Klucel (hydroxypropylcellulose) (HPC).
The mark [4] stands for this setting: dose: 200.0 mg/kg/injection, schedule: Q04DX003 (ip), vehicle: Klucel (hydroxypropylcellulose) (HPC).
The mark [5] stands for this setting: dose: 400.0 mg/kg/injection, schedule: Q01DX001 (ip), vehicle: Klucel (hydroxypropylcellulose) (HPC).
Setting [6] is: dose: 400.0 mg/kg/injection, schedule: Q04DX003 (ip), vehicle: Klucel (hydroxypropylcellulose) (HPC).
Where [7] appears, read: dose: 100.0 mg/kg/injection, schedule: Q01DX009 (ip), vehicle: Klucel (hydroxypropylcellulose) (HPC).
Setting [8] is: dose: 200.0 mg/kg/injection, schedule: Q01DX009 (ip), vehicle: Klucel (hydroxypropylcellulose) (HPC).
The mark [9] stands for this setting: dose: 400.0 mg/kg/injection, schedule: Q01DX009 (ip), vehicle: Klucel (hydroxypropylcellulose) (HPC).
Where [10] appears, read: dose: 100.0 mg/kg/injection, schedule: Q01DX009 (ip), vehicle: saline with Tween-80.
The mark [11] stands for this setting: dose: 100.0 mg/kg/injection, schedule: Q04DX003 (ip), vehicle: saline.
Where [12] appears, read: dose: 200.0 mg/kg/injection, schedule: Q04DX003 (ip), vehicle: saline.
Setting [13] is: dose: 400.0 mg/kg/injection, schedule: Q04DX003 (ip), vehicle: saline.
Where [14] appears, read: dose: 100.0 mg/kg/injection, schedule: Q01DX001 (ip), vehicle: carboxymethylcellulose (CMC).
Where [15] appears, read: dose: 200.0 mg/kg/injection, schedule: Q01DX001 (ip), vehicle: carboxymethylcellulose (CMC).
Where [16] appears, read: dose: 400.0 mg/kg/injection, schedule: Q01DX001 (ip), vehicle: carboxymethylcellulose (CMC).
The mark [17] stands for this setting: dose: 100.0 mg/kg/injection, schedule: Q04DX003 (ip), vehicle: saline with Tween-80.
Where [18] appears, read: dose: 200.0 mg/kg/injection, schedule: Q04DX003 (ip), vehicle: saline with Tween-80.
Setting [19] is: dose: 400.0 mg/kg/injection, schedule: Q04DX003 (ip), vehicle: saline with Tween-80.
Where [20] appears, read: dose: 100.0 mg/kg/injection, schedule: Q04DX002 (ip), vehicle: Klucel (hydroxypropylcellulose) (HPC).
The mark [21] stands for this setting: dose: 200.0 mg/kg/injection, schedule: Q04DX002 (ip), vehicle: Klucel (hydroxypropylcellulose) (HPC).
Setting [22] is: dose: 400.0 mg/kg/injection, schedule: Q04DX002 (ip), vehicle: Klucel (hydroxypropylcellulose) (HPC).
Setting [23] is: dose: 200.0 mg/kg/injection, schedule: Q01DX009 (ip), vehicle: saline with Tween-80.
The mark [24] stands for this setting: dose: 400.0 mg/kg/injection, schedule: Q01DX009 (ip), vehicle: saline with Tween-80.

Regarding `CCN1CCCC(OC(=O)c2cccc3[nH]ccc23)C1` (stereo not given), the T/C is, setting by setting: under setting [1], 93 % of control; under setting [2], 103 % of control; under setting [3], 97 % of control; under setting [4], 101 % of control; under setting [5], 98 % of control; under setting [6], 101 % of control.

For `CC(=O)Oc1cccc(OC(=O)Nc2ccc(C)c(NC(=O)Oc3cccc(OC(C)=O)c3)c2)c1`, the T/C is, setting by setting: under setting [7], 93 % of control; under setting [8], 96 % of control; under setting [9], 94 % of control.

For the compound `COc1cccc(C(C)(C)COS(=O)(=O)c2ccc(C)cc2)c1`, the T/C is, setting by setting: (dose: 50.0 mg/kg/injection, schedule: Q01DX009 (ip), vehicle: saline with Tween-80) 90 % of control; under setting [10], 90 % of control.

Turning to `CC1(C)C2CC3CC(C(=O)O)C(C(=O)O)CC3(C2)C1Br` (stereo not given), the T/C under setting [2] was 101 % of control, the T/C under setting [4] is 101 % of control and the T/C under setting [6] was 101 % of control.

Take `CN=C(NCCCOC)c1ccc(NC(=O)c2ccc(C(=O)Nc3ccc(C(=NC)NCCCOC)cc3)cc2)cc1`: the T/C (dose: 4.4 mg/kg/injection, schedule: Q01DX Z (ip), vehicle: carboxymethylcellulose (CMC)) was 124 % of control; the T/C (dose: 4.4 mg/kg/injection, schedule: Q01DX Z (ip), vehicle: saline) is 108 % of control; the T/C (dose: 6.6 mg/kg/injection, schedule: Q01DX Z (ip), vehicle: saline) is 108 % of control; the T/C (dose: 10.0 mg/kg/injection, schedule: Q01DX Z (ip), vehicle: carboxymethylcellulose (CMC)) was 156 % of control; the T/C (dose: 15.0 mg/kg/injection, schedule: Q01DX Z (ip), vehicle: carboxymethylcellulose (CMC)) is 179 % of control; the T/C (dose: 15.0 mg/kg/injection, schedule: Q01DX Z (ip), vehicle: saline) was 155 % of control and 172 % of control. Moreover, the T/C is 101 % of control (dose: 30.0 mg/kg/injection, schedule: Q01DX Z (oral), vehicle: saline); 91 % of control (dose: 60.0 mg/kg/injection, schedule: Q01DX Z (oral), vehicle: saline); 93 % of control (dose: 120.0 mg/kg/injection, schedule: Q01DX Z (oral), vehicle: saline); 87 % of control (dose: 240.0 mg/kg/injection, schedule: Q01DX Z (oral), vehicle: saline); 91 % of control (dose: 480.0 mg/kg/injection, schedule: Q01DX Z (oral), vehicle: saline).

Turning to `CCCc1c(C)nc(N)[nH]c1=O`, the T/C is, setting by setting: under setting [1], 102 % of control; under setting [3], 100 % of control; under setting [5], 97 % of control.

Take `COC(=O)C1CCCN1C(=O)C1CSC(C)(C)N1C=O` (stereo not given): the T/C was 103 % of control under setting [11], 92 % of control under setting [12] and 92 % of control under setting [13].

Take `O=C(Nc1cccc(Cl)c1)Nc1ccc(Br)c(C(F)(F)F)c1`: the T/C runs as follows: (dose: 50.0 mg/kg/injection, schedule: Q01DX001 (ip), vehicle: carboxymethylcellulose (CMC)) 100 % of control; under setting [14], 94 % of control; under setting [15], 96 % of control; under setting [16], 94 % of control.

For the compound `N#C/C(=C\C=C\c1ccccc1)C(=O)O`, the T/C runs as follows: (dose: 12.5 mg/kg/injection, schedule: Q04DX003 (ip), vehicle: Klucel (hydroxypropylcellulose) (HPC)) 96 % of control; (dose: 25.0 mg/kg/injection, schedule: Q04DX003 (ip), vehicle: Klucel (hydroxypropylcellulose) (HPC)) 107 % of control; (dose: 50.0 mg/kg/injection, schedule: Q04DX003 (ip), vehicle: Klucel (hydroxypropylcellulose) (HPC)) 96 % of control; under setting [2], 94 % of control.

With `COc1cc2c(cc1OC)-c1oncc1CCC2`, the T/C under setting [14] is 95 % of control, the T/C under setting [15] was 106 % of control and the T/C under setting [16] was 88 % of control.

For the compound `O=C(c1ccccc1)C1Cc2ccccc2C1=O` (stereo not given), the T/C under setting [7] was 100 % of control; the T/C under setting [11] is 102 % of control; the T/C under setting [8] is 114 % of control; the T/C under setting [12] is 102 % of control; the T/C under setting [9] was 97 % of control; the T/C under setting [13] is 102 % of control.

On to `O=C(c1ccc(F)cc1)c1ccc(Cl)cc1Cl`, for which the T/C under setting [17] is 97 % of control, the T/C under setting [18] is 98 % of control and the T/C under setting [19] was 101 % of control.

As for `SC12CC3CC(CC(C3)C1)C2`, the T/C reads like this: under setting [20], 87 % of control; under setting [21], 94 % of control; under setting [22], 98 % of control.

For `O=C1CCCN1C(=O)C1CC1`, the T/C (dose: 100.0 mg/kg/injection, schedule: Q01DX001 (ip), vehicle: saline sonified) was 96 % of control; the T/C under setting [10] was 91 % of control; the T/C (dose: 200.0 mg/kg/injection, schedule: Q01DX001 (ip), vehicle: saline sonified) was 109 % of control; the T/C under setting [23] was 87 % of control; the T/C (dose: 400.0 mg/kg/injection, schedule: Q01DX001 (ip), vehicle: saline sonified) was 106 % of control; the T/C under setting [24] was 92 % of control.

On to `Cc1c(Cl)cccc1NC(=O)NCCC(C)C`, for which the T/C reads like this: under setting [10], 86 % of control; under setting [17], 93 % of control; under setting [18], 91 % of control; under setting [24], 89 % of control; under setting [19], 95 % of control.

On to `CNC(=O)Oc1cccc(NC(=O)OC(C)C)c1`, for which the T/C runs as follows: under setting [10], 97 % of control; under setting [23], 98 % of control; under setting [24], 92 % of control.

With `Nc1ncc(Br)cn1`, the T/C was 105 % of control under setting [17], 100 % of control under setting [18] and 102 % of control under setting [19].

On to `O=S(=O)(/C=C\c1ccccc1)CBr`, for which the T/C under setting [20] was 100 % of control, the T/C under setting [21] is 97 % of control and the T/C under setting [22] was 106 % of control.

As for `CNc1nc(Cl)nc(Cl)n1`, the T/C is 87 % of control under setting [11] and 87 % of control under setting [12].

Consider `CC12CCC(CC1)C2C(=O)O` (stereo not given), for which the T/C was 106 % of control (dose: 75.0 mg/kg/injection, schedule: Q01DX009 (ip), vehicle: saline with Tween-80); 102 % of control under setting [17]; 93 % of control (dose: 150.0 mg/kg/injection, schedule: Q01DX009 (ip), vehicle: saline with Tween-80); 98 % of control under setting [18]; 98 % of control (dose: 300.0 mg/kg/injection, schedule: Q01DX009 (ip), vehicle: saline with Tween-80); 102 % of control under setting [19].

Consider `CN(N=O)C(=O)NC1C(CO)OC(n2cnc3c(N)ncnc32)C1O` (stereo not given), for which the T/C is, setting by setting: (dose: 13.0 mg/kg/injection, schedule: Q01DX001 (ip), vehicle: saline with Tween-80) 104 % of control; (dose: 20.0 mg/kg/injection, schedule: Q01DX001 (ip), vehicle: saline with Tween-80) 106 % of control; (dose: 30.0 mg/kg/injection, schedule: Q01DX001 (ip), vehicle: saline with Tween-80) 106 % of control; (dose: 44.0 mg/kg/injection, schedule: Q01DX001 (ip), vehicle: saline with Tween-80) 116 % of control; (dose: 67.0 mg/kg/injection, schedule: Q01DX001 (ip), vehicle: saline with Tween-80) 117 % of control; (dose: 100.0 mg/kg/injection, schedule: Q01DX001 (ip), vehicle: saline with Tween-80) 123 % of control. Besides, the T/C (dose: 150.0 mg/kg/injection, schedule: Q01DX001 (ip), vehicle: saline with Tween-80) was 117 % of control.

With `O=c1cc(Cl)c(=O)[nH][nH]1`, the T/C by setting is: under setting [10], 100 % of control; under setting [17], 94 % of control; under setting [23], 100 % of control; under setting [18], 94 % of control; under setting [24], 114 % of control; under setting [19], 94 % of control.
